How the values were obtained:
[1] = tested on: Bel-7402 (human hepatocellular carcinoma); assay: MTT cytotoxicity assay, Bel-7402; type: cell-based; conditions: maximal tested concentration 20.0 μM
Method: (§1) The cytotoxicity of ligustrazine-triterpenes derivatives was evaluated on five tumor cell lines (Bel-7402, HepG2, HT-29, Hela, and MCF-7) using the standard MTT assay. In the study, the antineoplastic drug cisplatin (DDP) was selected as the positive control. The MDCK cell line was used to test the toxicity of the ligustrazine-triterpenes derivatives and DDP.
(§2) The cell lines Bel-7402 (human hepatocellular carcinoma), HepG2 (human hepatocellular carcinoma), HT-29 (human colon carcinoma), Hela (human cervical cancer), MCF-7 (human breast cancer) were included in this study. All these cell lines were provided by the Chinese Academy of Medical Sciences & Peking Union Medical College. Cultures were maintained as monolayers in RPMI 1640 supplemented with 10% (v/v) heat inactivated fetal bovine serum and 1% (v/v) enicillin/streptomycin (Thermo Technologies, New York, NY, USA) at 37 °C in a humidified atmosphere with 5% CO2. The ligustrazine derivatives under study were dissolved in DMSO (Sigma, St. Louis, MO, USA) and added at required concentrations to the cell culture. Cells incubated without the preparations served as the control.
(§3) The cytotoxicity of the compounds was evaluated on five cancer cell lines (Bel-7402, HepG2, HT-29, Hela, MCF-7) by the standard MTT assay. In short, exponentially growing cells were seeded into 96-well plates at a density 10^4 cells/mL. The plates were incubated at 37 °C in a humidified 5% CO2 atmosphere. Cells were allowed to adhere to the surface for 24 h and then treated with serial dilutions of the compounds for 72 h. Later, aliquots of [3-(4,5-dimethylthiazol-2-yl)-2,5-diphenyltetrazolium bromide] (MTT) solution (20 μL, 5 mg/mL) were added to each well and the incubation was continued for an additional 4 h. Then the supernatant medium was thrown away. The dark blue formazan crystals formed within the healthy cells were solubilized with DMSO (150 μL) and the absorbance was measured in a plate reader (BIORAD 550 spectrophotometer, Bio-rad Life Science Development Ltd., Beijing, China) at 490 nm. Wells containing no drugs were used as control group. The IC50 values were defined as the concentration of compounds that produced a 50% reduction of surviving cells and calculated using Logit-method. Tumor cell growth inhibitory rate was calculated in the following Equation (1): % inhibition = (1 − Sample group OD/Control group OD) × 100% (1)

HepG2 cells [2] = assay: Apoptosis analysis by flow cytometry using Annexin V-FITC/PI staining; type: cell-based, human; conditions: 72 h, control 6%
Method: To substantiate the ability of 4a to induce apoptosis, further analysis was carried out using Annexin V-FITC/PI double staining technique in HepG2 cells. Cells stained with Annexin V-FITC and PI were classified as necrotic (Q1; Annexin^−/PI^+), late apoptotic (Q2; Annexin^+/PI^+), intact (Q3; Annexin^−/PI^−), or early apoptotic (Q4; Annexin^+/PI^−) cells. […] Even at the minimum concentration of 5 μM, 4a induced cell apoptosis at a ratio of 75.7% after 72 h of treatment.
The Annexin V-FITC/PI flow cytometric assay was performed to determine the early and late apoptosis in this assay according to the instruction of the manufacturer (Annexin V-FITC/PI, Beijing BioDee Biotech. Co., Ltd., Beijing, China). Briefly, HepG2 cells were treated with various concentrations of compound 4a (5, 6, 7 μM) for 72 h at 37 °C, then the treated cells were washed twice with cold PBS and centrifuged at 1000 rpm for 5 min. The harvested cells were resuspended in 200 μL binding buffer, containing 10 μL Annexin V-FITC. After 15 min, the cells were washed twice and resuspended in 300 μL binding buffer. At the same time, 10 μL PI was added. Then the cells were immediately analyzed with a flow cytometry.

HepG2 cells [3] = assay: Morphological observation using AO/EB double staining; type: cell-based, human; conditions: HepG2, 2, 4, 8 μM for 72 h
Method: To further characterize 4a-induced HepG2 cell apoptosis, the changes in cell morphology of the treated cells were determined using AO/EB double staining. AO is a vital dye that stains both live and dead cells as it can penetrate normal cell membrane. EB stains only cells that have lost their membrane integrity. Cells that stained green indicate viable cells, yellow indicate early apoptosis and orange/red indicate late apoptosis.
Apoptotic study was performed using AO/EB double staining. HepG2 cells were seeded in six well plates at a density of 1 × 10^4 cells/well and allowed to grow for 24 h. Then the cells were incubated in the presence of 4a at various concentrations (2, 4, 8 μΜ) at 37 °C and 5% CO2 for 72 h. After the treatment period, cells were collected and centrifuged; then the cells were suspended in phosphate-buffer saline (PBS) and centrifuged again. The liquid was removed; the cells were suspended in PBS. Then AO/EB (AO/EB, Sigma, USA) solution (1:1 v/v) was added to the cell suspension in a final concentration of 100 μg/mL. Cell morphologies were assessed under a fluorescent microscope.

HepG2 cells [4] = assay: Morphological observation using Giemsa staining; type: cell-based, human; conditions: HepG2, 2, 4, 8 μM for 72 h
Method: The morphological changes in HepG2 cells were examined by Giemsa staining. HepG2 cells were seeded in 6-well plates. The cell density was adjusted to 4 × 10^3/well and incubated overnight. After 72 h reaction with certain concentrations of 4a (2, 4, 8 μM), cells were washed with PBS and fixed with cold methanol for 10 min. Methanol was discarded and cells were air-dried. Then fixed cells were stained with 6% Giemsa (Giemsa, Molecular Probes/Invitrogen Life Technologies, Carlsbad, CA, USA) solution for 5 min, washed with water and dried. The cell morphological changes were observed and photographed under a light microscope.

[5] = tested on: Madin-Darby canine kidney cell line (MDCK); assay: MTT cytotoxicity (nephrotoxicity/selectivity) assay, MDCK; type: cell-based; conditions: Canis lupus familiaris
[6] = tested on: MCF-7 (human breast cancer); assay: MTT cytotoxicity assay, MCF-7; type: cell-based; conditions: maximal tested concentration 20.0 μM
Method: as §1, §2, §3

[7] = tested on: HepG2 (human hepatocellular carcinoma); assay: MTT cytotoxicity assay, HepG2; type: cell-based; conditions: for IC50: 72 h, maximal tested concentration 20.0 μM
Method: as §1, §2, §3

## C=C(C)[C@@H]1CC[C@]2(C(=O)OCc3nc(C)c(C)nc3C)CC[C@]3(C)C(CCC4[C@@]5(C)CC[C@H](O)C(C)(C)C5CC[C@]43C)C12 (stereo partly drawn) [Compound 4a, 3β-Hydroxy-lup-20(29)-ene-28-oic acid-3,5,6-trimethylpyrazin-2-methyl ester]
[1]; 72 h
  IC50: 4.19 µM
[1]; Homo sapiens, Bel-7402, 72 h
  IC50: < 5.23 µM
HepG2 cells [2]; HepG2, 5 μM
  apoptosis ratio (early and late apoptosis): 75.7%
HepG2 cells [2]; HepG2, 6 μM
  apoptosis ratio (early and late apoptosis): 76.6%
HepG2 cells [2]; HepG2, 7 μM
  apoptosis ratio (early and late apoptosis): 83.7%
HepG2 cells [3]
  cell morphology after AO/EB double staining: increased number of orange- and red-stained cells in a dose dependent manner
HepG2 cells [4]
  cell morphology after Giemsa staining: evident nuclear fragmentation, chromatin condensation in a dose dependent manner
[5]; MDCK, 10 μM, read-out: inhibition rate against MDCK
  inhibition at 10 µM: ~26.5%
[5]; maximal tested concentration 20.0 μM, toxicity to MDCK kidney cells
  IC50: > 20 µM
[6]; 72 h
  IC50: 4.23 µM
[6]; Homo sapiens, MCF7, 72 h
  IC50: < 5.23 µM
[7]
  IC50: 4.48 µM
[7]; Homo sapiens, HepG2, 10 μM, read-out: inhibition rate against HepG2
  inhibition at 10 µM: 99.9%
[7]; Homo sapiens, HepG2, 72 h
  IC50: < 5.23 µM

— article PMC4613240, “A Series of New Ligustrazine-Triterpenes Derivatives as Anti-Tumor Agents: Design, Synthesis, and Biological Evaluation” (International Journal of Molecular Sciences, 2015)
